Measured values reported in paper PMC10147923, “Pain-causing stinging nettle toxins target TMEM233 to modulate NaV1.7 function” (Nature Communications, 2023).
Several values for one entry are separate records, joined by “and”; a condition that tells them apart may be missing. Equal entries are not always repeated. Where two headings read alike, the source gives them in different places. Positions of bridges follow the written chain, without caps; N, C: chain ends. Residues, ends and D or L forms follow the SMILES beside them.

Key:
NaV1.7 = NaV1.7 (Homo sapiens, UniProt Q15858); type: cell-based; settings: ExTxA 100 nM; individual cells
Sequence of NaV1.7 (Q15858 whole entry): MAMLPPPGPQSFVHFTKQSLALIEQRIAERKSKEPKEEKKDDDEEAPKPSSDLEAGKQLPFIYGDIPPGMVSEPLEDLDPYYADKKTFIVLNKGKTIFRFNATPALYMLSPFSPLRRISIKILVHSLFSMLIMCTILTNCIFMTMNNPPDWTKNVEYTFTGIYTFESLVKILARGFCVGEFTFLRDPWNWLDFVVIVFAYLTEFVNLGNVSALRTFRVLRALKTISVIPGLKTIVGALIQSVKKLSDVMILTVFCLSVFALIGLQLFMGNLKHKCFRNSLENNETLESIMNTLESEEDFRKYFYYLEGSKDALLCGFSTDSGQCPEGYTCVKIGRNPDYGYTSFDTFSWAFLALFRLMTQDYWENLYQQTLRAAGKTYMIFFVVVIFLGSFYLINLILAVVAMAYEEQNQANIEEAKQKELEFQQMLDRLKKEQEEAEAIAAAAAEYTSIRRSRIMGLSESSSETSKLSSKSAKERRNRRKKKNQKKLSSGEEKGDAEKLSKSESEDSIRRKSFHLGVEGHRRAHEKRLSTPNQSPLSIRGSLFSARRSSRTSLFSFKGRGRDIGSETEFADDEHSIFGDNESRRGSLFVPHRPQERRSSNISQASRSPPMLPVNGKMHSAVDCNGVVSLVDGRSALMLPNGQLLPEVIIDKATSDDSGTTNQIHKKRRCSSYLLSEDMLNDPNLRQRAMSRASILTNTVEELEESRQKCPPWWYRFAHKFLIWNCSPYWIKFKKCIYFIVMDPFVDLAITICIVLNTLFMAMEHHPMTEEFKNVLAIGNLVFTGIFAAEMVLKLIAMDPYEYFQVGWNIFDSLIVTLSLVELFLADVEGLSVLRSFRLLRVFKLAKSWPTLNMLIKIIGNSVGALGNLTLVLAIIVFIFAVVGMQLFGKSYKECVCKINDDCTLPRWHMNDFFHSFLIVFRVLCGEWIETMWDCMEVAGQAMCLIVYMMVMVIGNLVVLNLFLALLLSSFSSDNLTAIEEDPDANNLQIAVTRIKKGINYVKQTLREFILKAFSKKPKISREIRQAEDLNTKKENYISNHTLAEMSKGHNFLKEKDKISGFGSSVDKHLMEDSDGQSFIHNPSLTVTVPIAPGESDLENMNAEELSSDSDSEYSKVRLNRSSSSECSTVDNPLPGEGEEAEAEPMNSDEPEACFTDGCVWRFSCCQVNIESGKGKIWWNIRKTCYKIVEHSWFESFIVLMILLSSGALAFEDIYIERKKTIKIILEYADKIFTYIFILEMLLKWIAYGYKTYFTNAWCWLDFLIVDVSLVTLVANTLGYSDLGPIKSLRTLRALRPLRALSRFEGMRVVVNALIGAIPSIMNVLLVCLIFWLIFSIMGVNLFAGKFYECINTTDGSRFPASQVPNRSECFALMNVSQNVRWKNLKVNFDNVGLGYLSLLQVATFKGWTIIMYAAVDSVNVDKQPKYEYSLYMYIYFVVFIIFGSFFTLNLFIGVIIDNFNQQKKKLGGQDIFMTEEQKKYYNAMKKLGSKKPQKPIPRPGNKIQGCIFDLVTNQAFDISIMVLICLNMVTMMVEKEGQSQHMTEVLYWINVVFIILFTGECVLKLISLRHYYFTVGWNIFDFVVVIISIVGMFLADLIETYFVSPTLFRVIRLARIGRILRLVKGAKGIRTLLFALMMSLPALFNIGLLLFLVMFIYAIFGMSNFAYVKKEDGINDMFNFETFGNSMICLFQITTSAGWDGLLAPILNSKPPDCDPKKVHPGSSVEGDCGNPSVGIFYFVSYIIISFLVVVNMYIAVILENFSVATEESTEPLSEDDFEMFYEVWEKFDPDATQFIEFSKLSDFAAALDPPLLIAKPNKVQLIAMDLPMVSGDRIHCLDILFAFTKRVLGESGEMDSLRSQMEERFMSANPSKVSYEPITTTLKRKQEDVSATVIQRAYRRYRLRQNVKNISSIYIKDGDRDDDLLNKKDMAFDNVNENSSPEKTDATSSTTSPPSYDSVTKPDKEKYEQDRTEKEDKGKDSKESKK
Sequence of NaV1.7 (Q07699 19-218, further chain): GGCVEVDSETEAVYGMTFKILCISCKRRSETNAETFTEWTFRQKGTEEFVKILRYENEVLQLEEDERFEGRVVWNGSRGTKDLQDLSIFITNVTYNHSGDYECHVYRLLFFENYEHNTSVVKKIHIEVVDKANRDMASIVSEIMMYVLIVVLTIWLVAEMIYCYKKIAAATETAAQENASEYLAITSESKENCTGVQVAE

TE-671 cells, TMEM233 KO = type: cell-based; settings: ExTxA 1 µM
hNaV1.8 = experiment: Persistent current, CHO-hNaV1.8/β3; type: cell-based, human; settings: ExTxA 1 µM
[1] = system: NaV currents in F11 cells; experiment: Persistent current, F11 cells; type: cell-based; settings: ExTxA 1 µM; individual cells
hNaV1.7/β1 = experiment: Persistent current, CHO hNaV1.7/β1; type: cell-based, human; settings: ExTxA 1 µM, mean, n = 11
NaV1.7/TMEM233 [2] = molecular target: T1, NaV1.7/TMEM233 (Homo sapiens, UniProt B4DJY2+Q15858); type: cell-based
[3] = system: total NaV current in Tmem233Cre/Cre DRG neurons; experiment: Persistent NaV current, Tmem233Cre/Cre DRG neurons; type: cell-based, mouse
[4] = system: DRG neurons from wild-type C57BL/6 mice; experiment: Calcium imaging, wild-type DRG neurons; type: cell-based, mouse
Procedure: DRG from all spinal levels were isolated from male and female mice (wild-type C57BL/6 J, Tmem233^Cre/Cre, NaV1.8^Cre/Cre, NaV1.9^−/− or littermate controls) as previously described[36],[38],[39]. For Ca^2+ imaging experiments, DRG neurons were dissociated following incubation with 1% collagenase type IV (Worthington, New Jersey, USA) for 1.5 h (37 °C, 5% CO2) and 2.5% trypsin (Sigma-Aldrich, Montana, USA) for 15 min and resuspended in Dulbecco’s modified Eagle’s medium (DMEM) (Sigma-Aldrich, New South Wales, Australia) supplemented with 10% fetal bovine serum (FBS) (Thermofisher, Massachusetts, USA) and penicillin/streptomycin (Thermofisher, Massachusetts, USA). Following plating in 96-well poly-D-lysine–coated culture plates, isolated neurons were incubated for 24 h at 37 °C with 5% CO2 prior to imaging.
Dissociated DRG neurons from Tmem233^Cre/Cre and C57BL/6 mice were plated on PDL-coated 96-well black-walled imaging plates and loaded with Fluo-4 AM calcium indicator (5 μM) (Invitrogen, Massachusetts, USA) for 1 h in culture medium. Cells were washed with Hanks’ balanced salt solution containing 20 mM HEPES and then transferred to the recording chamber of a Nikon Ti-E Deconvolution inverted microscope equipped with a Lumencor Spectra LED light source. Fluorescence images (excitation, 485 nm; emission, 521 nm) were acquired at 1 frame per second using a ×20 objective. Following the recording of baseline fluorescence (20 s), cells were consecutively exposed to buffer control (0.1% BSA, t = 30 s), ExTxA (10 nM, t = 60 s), and 30 mM KCl (30 mM, t = 210 s). […] Cells responding to buffer control were excluded from analysis.

NaV1.7/TMEM233 [5] = molecular target: T1, NaV1.7/TMEM233; type: cell-based; remark: listed apart in the source
Procedure: Current-voltage (IV) curves were determined in HEK-NaV1.7 cells, in the absence and presence of TMEM233, from a series of step pulses (500 ms) ranging from −110 to +55 mV (5 mV increments, repetition interval 5 s) before and after incubation with ExTxA (1 μM) from a holding potential of −90 mV. Currents were converted to conductance (G) using G = I/(V − Vrev), with Vrev being the reversal potential, plotted against voltage and fitted with a Boltzmann equation to obtain GV (conductance-voltage) curves. Voltage dependence of steady-state fast inactivation was determined by a subsequent 10 ms pulse to −20 mV immediately following the 500 ms depolarization step detailed above to assess the available non-inactivated channels.

NaV1.7/TMEM233 [6] = molecular target: T1, NaV1.7/TMEM233; experiment: Ramp currents with ExTxA, HEK293 NaV1.7/TMEM233; type: cell-based
NaV1.7/PRRT2 = NaV1.7/PRRT2 (Homo sapiens, UniProt Q15858+Q7Z6L0); type: cell-based
Sequence of NaV1.7/PRRT2 (Q7Z6L0 whole entry): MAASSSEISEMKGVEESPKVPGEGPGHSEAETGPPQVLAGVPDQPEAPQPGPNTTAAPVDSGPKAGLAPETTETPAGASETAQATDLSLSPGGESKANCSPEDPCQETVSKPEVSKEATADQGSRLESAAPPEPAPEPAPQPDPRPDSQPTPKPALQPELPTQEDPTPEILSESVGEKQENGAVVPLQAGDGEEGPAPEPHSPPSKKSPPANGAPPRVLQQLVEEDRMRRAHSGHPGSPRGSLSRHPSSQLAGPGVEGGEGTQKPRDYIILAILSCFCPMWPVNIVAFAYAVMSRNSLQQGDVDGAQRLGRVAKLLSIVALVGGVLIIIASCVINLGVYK
Sequence of NaV1.7/PRRT2 (Q07699 19-218, further chain): as the sequence (Q07699 19-218, further chain) above
Sequence of NaV1.7/PRRT2 (Q15858 whole entry): as the sequence (Q15858 whole entry) above

TMEM233 = TMEM233 (Homo sapiens, UniProt B4DJY2); experiment: Currents in Cos-1 cells transfected with TMEM233 only; type: cell-based
Sequence of TMEM233 (B4DJY2 whole entry): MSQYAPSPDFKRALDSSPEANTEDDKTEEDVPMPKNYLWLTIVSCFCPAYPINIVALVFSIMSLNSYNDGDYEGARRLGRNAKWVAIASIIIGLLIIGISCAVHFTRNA
Procedure: Whole-cell patch clamp experiments involving HEK293, COS-1, CHO, ND7/23, F11, SH-SY5Y and TE-671 cells were performed on a QPatch II automated electrophysiology platform (Sophion Bioscience, Ballerup, Denmark) as previously described. Cells at approximately 70–80% confluency were harvested from T75 flasks using TrypLE Express at 37 °C for 2–5 min and resuspended in DMEM with 25 mM HEPES (Sigma-Aldrich, NSW, Australia), 100 U/mL Penicillin-Streptomycin (Gibco) and 40 µg/mL trypsin inhibitor from Glycine max (soybean) (Sigma Aldrich) prior to recovery on a QStirrer (Sophion) for 30 min. 16-channel patch plates with a patch hole diameter of 1 μm and resistance of 2 ± 0.02 MΩ were used. Cell positioning and sealing parameters were as follows: positioning pressure −60 mbar, minimum seal resistance 0.1 GΩ, holding potential −100 mV, holding pressure −20 mbar. Whole-cell currents were filtered at 5 kHz and acquired at 25 kHz. Series resistance compensation was used and set to 70%.

[7] = individual cells, paired with buffer

SMILES: CC[C@H](C)[C@@H]1NC(=O)[C@H](CCCNC(=N)N)NC(=O)[C@H](Cc2ccccc2)NC(=O)[C@H](CC(C)C)NC(=O)[C@H](CO)NC(=O)[C@@H]2CSSC[C@@H]3NC(=O)[C@H]([C@@H](C)O)NC(=O)[C@H](CSSC[C@H](NC(=O)[C@H](CCCNC(=N)N)NC(=O)[C@@H]4CCCN4C(=O)[C@@H](N)CC(C)C)C(=O)N[C@@H](CC(=O)O)C(=O)N[C@@H](CO)C(=O)N4CCC[C@H]4C(=O)N[C@@H](Cc4ccccc4)C(=O)N2)NC(=O)[C@H](CCCCN)NC(=O)[C@H](CC(=O)O)NC(=O)CNC(=O)[C@H](CSSC[C@@H](C(=O)N[C@H](C(=O)N2CCC[C@H]2C(=O)N[C@@H](CC(=O)O)C(=O)N[C@H](C(=O)O)C(C)C)C(C)C)NC(=O)[C@H](CC(C)C)NC(=O)CNC(=O)[C@H](Cc2ccccc2)NC(=O)[C@H]([C@@H](C)CC)NC(=O)[C@@H]2CCCN2C(=O)[C@H](CC(C)C)NC(=O)[C@@H]2CCCN2C(=O)[C@H](C(C)C)NC3=O)NC(=O)[C@H](CC(C)C)NC(=O)CNC1=O [ExTxA, excelsatoxin A] (H-LPRCDSPFCSLFRIGLCGDKCTCVPLPIFGLCVPDV-OH; disulfide 4-21, 9-23, 17-32)
- hiPSC-derived sensory neurons persistent current (I40 ms/Ipeak) (NaV1.7): 0.1753 and 0.2081 and 0.0959 and 0.1857 and 0.092
- Difference between means (B - A), TMEM233-/- minus wildtype (TE-671 cells, TMEM233 KO): -0.7661 ± 0.02026
- persistent current (I40 ms/Ipeak) (TE-671 cells, TMEM233 KO; TMEM233-/-, individual cells): 0.1031 and 0.03299 and 0.02248 and 0.06663 and 0.03142 and 0.02781
- persistent current (I40 ms/Ipeak) (hNaV1.8; individual cells): 0.04156 and 0.003935 and 0.01946 and 0.03094 and 0.03913 and 0.02554
- Δ persistent current (I40 ms/Ipeak; buffer cf. ExTxA) (hNaV1.8; mean): 0.027 ± 0.0057 and 0.02676
- persistent current (I40 ms/Ipeak) [1]: 0.004557 and -0.00296 and -0.00917 and -0.00017 and -0.00072 and 0.02041
- Δ persistent current (I40 ms/Ipeak) in CHO hNaV1.7 (hNaV1.7/β1): 0.0001 ± 0.001 and 0.0001365
- Best-fit parameter Bottom (NaV1.7/TMEM233 [2]): 0.0729
- Best-fit parameter Hill slope (NaV1.7/TMEM233 [2]): 1.156
- Best-fit parameter Top (NaV1.7/TMEM233 [2]): 0.7692
- Top (NaV1.7/TMEM233 [2]): 0.7845
- persistent current, Predicted (LS) mean diff. (NaV1.7/TMEM233 [2]): -0.5401
- potency with TMEM233 versus PRRT2 or TRARG1 (NaV1.7/TMEM233 [2]): significantly more potent when co-expressed with TMEM233
- effect on inactivation, toxin in extracellular solution (NaV1.7/TMEM233 [2]; ExTxA 100 nM in ECS): robustly inhibited inactivation
- effect on inactivation, toxin in intracellular solution (NaV1.7/TMEM233 [2]; ExTxA 100 nM in ICS): did not affect inactivation
- Difference between means (D - C), TMEM233 minus control (NaV1.7/TMEM233 [2]; ExTxA 1 µM): -1468 ± 228.9 pA
- LogEC50 (NaV1.7/TMEM233 [2]; Nav1.7/TMEM233, 95% CI -8.367 to -8.102, Fig 4g): -8.24
- HillSlope (NaV1.7/TMEM233 [2]; Nav1.7/TMEM233, Fig 4g): 0.9284
- persistent current, Mean diff, A2 - B2 [3]: 0.4591
- ExTxA-induced persistent current (I40ms/Ipeak; nA) in DRG neurons ([3]; ExTxA 30 nM, Tmem233Cre KO, mean ± SEM, n = 7): 0.114 ± 0.04
- ExTxA-induced DRG Ca2+ responses ([4]; ExTxA 10 nM, wt, Fluo-4, >1.5-fold increase, mean ± SEM, n = 10 wells): 53.20 ± 1.789 % neurons activated
- calcium imaging response (Fig. 3f) ([4]; WT, individual values, one line each (n = 10)): 51.5152 and 56.8182 and 58.0645 and 43.75 and 44.8276 and 50.7042 and 59.292 and 51.8519
- calcium imaging response (Fig. 3f), Mean ([4]; WT, mean, number of values 10, Std. Deviation 5.657, SEM 1.789): 53.2
- calcium imaging response (Fig. 3f), Median ([4]; WT, median, number of values 10): 53.9
- depolarizing shift in the voltage-dependence of fast inactivation (NaV1.7/TMEM233 [5]): 18.0 mV
- hyperpolarizing shift in the voltage-dependence of activation (NaV1.7/TMEM233 [5]): 11.6 mV
- V50 of Activation (NaV1.7/TMEM233 [5]; ExTxA 1 µM, NaV1.7/TMEM233, mean ± SEM, n = 7, control -24.31 ± 1.11): -35.92 ± 1.00 mV
- V50 of Inactivation (NaV1.7/TMEM233 [5]; ExTxA 1 µM, NaV1.7/TMEM233, mean ± SEM, n = 8, control -67.77 ± 1.12): -49.80 ± 3.20 mV
- V50 of Activation, mean of differences (B - A) (NaV1.7/TMEM233 [5]; ExTxA vs. buffer, paired t test, 7 pairs): -11.61
- V50 of Inactivation, mean of differences (B - A) (NaV1.7/TMEM233 [5]; ExTxA vs. buffer, paired t test, 8 pairs): 17.97
- V50 of Activation (NaV1.7/TMEM233 [5]; [7]): -34.91 and -38.74 and -38.17 and -35.28 and -37.07 and -36.44 and -30.84
- V50 of Inactivation (NaV1.7/TMEM233 [5]; [7]): -45.67 and -44.27 and -43.05 and -47.34 and -66.38 and -46.52 and -43.25 and -61.92
- Ramp current (0.2 mV/s) (NaV1.7/TMEM233 [6]): -1.952 ± 0.950 nA
- Ramp current (NaV1.7/TMEM233 [6]; NaV1.7-TMEM233 + ExTxA (100 nM), individual cells): -2.267 and -0.5155 and -0.3095 and -7.0521 and -0.7027 and -0.3607 and -2.095 and -0.6283
- currents induced by slow voltage-ramps (NaV1.7/TMEM233 [6]; extracellular ExTxA): an increase of currents induced by slow voltage-ramps
- LogEC50 (NaV1.7/PRRT2; Nav1.7/PRRT2, 95% CI -6.892 to -6.214, Fig 4g): -6.331
- HillSlope (NaV1.7/PRRT2; Nav1.7/PRRT2, Fig 4g): 0.9384
- Top (NaV1.7/PRRT2; Nav1.7/PRRT2, best-fit, constraint Top < 1, Fig 4g): 0.7711
- ExTxA-induced currents with PRRT2 (NaV1.7/PRRT2; co-expression with NaV1.7): resulted in ExTxA-induced persistent currents
- ExTxA-induced persistent current (TMEM233): -7.493 ± 8.833
- ExTxA-induced currents, TMEM233 alone (TMEM233; cells lacking endogenous NaV currents): did not result in either voltage-gated or ExTxA-induced currents
